Values after ≈ are worked out from the molar mass of the structure shown. Values joined by “and” are separate entries in the source; they are usually repeats but may differ in a detail not shown here. Identical values can stand only once.
Assays:
KG-1a [1] = experiment: Cytotoxicity against human KG1a cells assessed as reduction in cell viability after 48 hrs by MTT assay; type: functional, cell-based
MOLT-4 [2] = experiment: Cytotoxicity against human MOLT4 cells assessed as reduction in cell viability after 48 hrs by MTT assay; type: functional, cell-based
KG-1a [3] = experiment: Down regulation of WT1 protein levels in human KG1a cells after 48 hrs by Western blot analysis relative to control; type: functional
MOLT-4 [4] = experiment: Down regulation of WT1 protein levels in human MOLT4 cells after 48 hrs by Western blot analysis relative to control; type: functional
MCF7 [5] = experiment: Cytotoxicity against human MCF7 cells assessed as reduction in cell viability after 72 hrs by MTT assay; type: functional, cell-based
Ca-Ski = experiment: Cytotoxicity against human CaSki cells assessed as reduction in cell viability after 72 hrs by MTT assay; type: functional, cell-based
PC-3 [6] = experiment: Cytotoxicity against human PC3 cells assessed as reduction in cell viability after 72 hrs by MTT assay; type: functional, cell-based
HT-29 = experiment: Cytotoxicity against human HT-29 cells assessed as reduction in cell viability after 72 hrs by MTT assay; type: functional, cell-based
HUVEC = experiment: Cytotoxicity against human HUVEC cells assessed as reduction in cell viability after 72 hrs by MTT assay; type: functional, cell-based
KG-1a [7] = experiment: Antiproliferative activity against human KG1a cells at IC20 after 48 hrs by trypan blue exclusion assay relative to control; type: functional
MOLT-4 [8] = experiment: Antiproliferative activity against human MOLT4 cells at IC20 after 48 hrs by trypan blue exclusion assay relative to control; type: functional
MOLT-4 [9] = experiment: Down regulation of WT1 protein levels in human MOLT4 cells at 5 to 15 uM after 48 hrs by Western blot analysis relative to control; type: functional
KG-1a [10] = experiment: Potency index, ratio of doxorubicin IC50 to compound IC50 for human KG1a cells; type: functional
MOLT-4 [11] = experiment: Potency index, ratio of doxorubicin IC50 to compound IC50 for human MOLT4 cells; type: functional
HeLa = experiment: Growth inhibition of human HeLa cells after 48 hrs by MTT assay; type: functional, cell-based
HepG2 = experiment: Growth inhibition of human HepG2 cells after 48 hrs by MTT assay; type: functional, cell-based; conditions: HepG2, 48 h
HL-60 = experiment: Growth inhibition of human HL60 cells after 48 hrs by MTT assay; type: functional, cell-based; conditions: HL-60, 48 h
PC-3 [12] = experiment: Growth inhibition of human PC3 cells after 48 hrs by MTT assay; type: functional, cell-based; conditions: PC-3, 48 h
SGC-7901 = experiment: Growth inhibition of human SGC7901 cells after 48 hrs by MTT assay; type: functional, cell-based; conditions: SGC-7901, 48 h
HT-1080 = experiment: Growth inhibition of human HT1080 cells after 48 hrs by MTT assay; type: functional, cell-based; conditions: HT-1080, 48 h
MOLT-4 [13] = experiment: Cytotoxicity against human MOLT4 cells assessed as reduction in cell viability; type: functional, cell-based
KB = experiment: Cytotoxicity against human KB cells assessed as reduction in cell viability; type: functional, cell-based
MCF7 [14] = experiment: Cytotoxicity against human MCF7 cells assessed as reduction in cell viability; type: functional, cell-based
NCI-H187 = experiment: Cytotoxicity against human NCI-H187 cells assessed as reduction in cell viability; type: functional, cell-based
[15] = Homo sapiens, MOLT-4, 48 h, read-out: IC50

Row | Structure (SMILES) | IC20 (KG-1a [1]) [µg/mL] | IC50 (KG-1a [1]) [µg/mL] | IC50 (MOLT-4 [2]; molt-4) | Activity (KG-1a [3]) [%] | Activity (MOLT-4 [4]) [%] | Activity (KG-1a [7]) [%] | Activity (MOLT-4 [8]) [%] | IC50 (MOLT-4 [2]; [15]) [µg/mL] | other results
1 | CC(C)=C1CC(=O)[C@@H](C)CC/C=C(\C)CC1=O | 30 (≈ 128 µM) | > 100 | > 100 µg/mL and 35 µg/mL | 44.3 | 55.25 | 19.92 | 49.44 |  | IC50 (MCF7 [5]; mcf7): 33 µg/mL (≈ 141 µM); IC50 (Ca-Ski): 21.7 µg/mL (≈ 92.6 µM); IC50 (PC-3 [6]; pc-3): 19.1 µg/mL (≈ 81.5 µM); IC50 (HT-29; ht-29): 22.7 µg/mL (≈ 96.9 µM); IC50 (HUVEC; huvec): 24 µg/mL (≈ 102 µM)
2 | CC(C)=C1C[C@@H]2O[C@@]2(C)CC/C=C(\C)CC1=O | 20 (≈ 85.3 µM) | > 100 | 53 µg/mL (≈ 226 µM) | 92.22 | 62.53 | 24.27 | 55.7 | > 100 | IC50 (MCF7 [5]; Homo sapiens, MCF7, 72 h): 37.2 µg/mL (≈ 159 µM); IC50 (PC-3 [6]; Homo sapiens, PC-3, 72 h): 43.9 µg/mL (≈ 187 µM); IC50 (HT-29; Homo sapiens, HT-29, 72 h): 39.6 µg/mL (≈ 169 µM); IC50 (HUVEC; Homo sapiens, HUVEC, 72 h): 48.4 µg/mL (≈ 207 µM)
3 | COc1cc(/C=C/C(=O)CC(=O)/C=C/c2ccc(O)c(OC)c2)ccc1O [CURCUMIN] |  |  |  |  |  |  |  |  | Activity (MOLT-4 [9]): 90%
4 | COc1cccc2c1C(=O)c1c(O)c3c(c(O)c1C2=O)C[C@@](O)(C(=O)CO)C[C@@H]3O[C@H]1C[C@H](N)[C@H](O)[C@H](C)O1 [DOXORUBICIN] |  | 0.65 (≈ 1.2 µM) |  |  |  |  |  | 0.46 (≈ 0.846 µM) | 
5 | C/C1=C\Cc2c(C)coc2C/C(C)=C/CC1 [ISOFURANODIENE] | 25 (≈ 116 µM) | 50.1 (≈ 232 µM) | 23 µg/mL (≈ 106 µM) | 58.08 | 32.17 | 19.58 | 10.74 | 39.6 (≈ 183 µM) | Ratio IC50 (KG-1a [10]): 77; Ratio IC50 (MOLT-4 [11]): 86; IC50 (HeLa): 0.6 to 4 µg/mL (≈ 2.77 to 18.5 µM); IC50 (HepG2): 0.6 to 4 µg/mL (≈ 2.77 to 18.5 µM); IC50 (HL-60): 0.6 to 4 µg/mL (≈ 2.77 to 18.5 µM); IC50 (PC-3 [12]): 0.6 to 4 µg/mL (≈ 2.77 to 18.5 µM); IC50 (SGC-7901): 0.6 to 4 µg/mL (≈ 2.77 to 18.5 µM); IC50 (HT-1080): 0.6 to 4 µg/mL (≈ 2.77 to 18.5 µM)
6 | CC[C@]1(O)C[C@H]2CN(CCc3c([nH]c4ccccc34)[C@@](C(=O)OC)(c3cc4c(cc3OC)N(C=O)[C@H]3[C@@](O)(C(=O)OC)[C@H](OC(C)=O)[C@]5(CC)C=CCN6CC[C@]43[C@@H]65)C2)C1 [VINCRISTINE] |  |  |  |  |  |  |  |  | IC50 (MOLT-4 [13]): 0.00063 µg/mL (≈ 0.000764 µM)
7 | CC(C)=C1C[C@H]2[C@@H](CC[C@]2(C)O)[C@](C)(O)CC1=O [ZEDOARONDIOL] | 60 (≈ 238 µM) | > 100 | 49 µg/mL (≈ 194 µM) | 95.52 | 63.17 | 30.48 | 48.99 | 77.6 (≈ 308 µM) | IC50 (KB): > 50 µg/mL; IC50 (MCF7 [14]): > 50 µg/mL; IC50 (NCI-H187): > 50 µg/mL

Reference: ChEMBL document CHEMBL4184103, “Cytotoxicity and inhibition of leukemic cell proliferation by sesquiterpenes from rhizomes of Mah-Lueang (Curcuma cf. viridiflora Roxb.)” (Bioorg Med Chem Lett, 2018)
